Where “and” joins values, the source holds several entries; their conditions need not be identical. Equal values may be shown once. Where a name gives a salt, the structure may show the parent alone. Read-outs that look alike come from different tables or passages of the source.
Tests used:
rat α3β4 nAChRs = settings: 2001, cited from earlier work; for block of rat α3β4 nAChR channels: ref Xiao et al.
Straub tail observation = assay type: in vivo; settings: doses used in the behavioral studies
[1] = 100 mg/kg, sc; ref Pohland et al., 1971; cited from earlier work
[2] = system: opiate receptor binding sites labeled by [^3H]-naloxone; experiment: [3H]-naloxone binding competition assay in rat forebrain membranes
[3] = system: 129SvEv;C57Bl/6J F1 hybrid mice; experiment: Marble burying; assay type: in vivo; settings: mouse, 10 min before 15 min test
[4] = system: 129SvEv;C57Bl/6J F1 hybrid mice; experiment: Forced swim test; assay type: in vivo, mouse; settings: 6 min test; for immobility time vs vehicle: mouse
Sprague-Dawley rats [5] = experiment: Open field locomotor activity; assay type: in vivo; settings: rat, 30 min after injection, 10 min test
Sprague-Dawley rats [6] = experiment: Forced swim test; assay type: in vivo; settings: rat, three doses, 300 sec test
human α3β4 nAChRs = human α3β4 nAChRs (Homo sapiens, UniProt P30926+P32297); experiment: 86Rb+ efflux assay, block of nicotine-stimulated channel function
[7] = system: 129SvEv;C57Bl/6J F1 hybrid mice; experiment: Home cage locomotor activity; assay type: in vivo; settings: mouse, 0.5, 1, 5, 10 mg/kg i.p., 60 min
Sprague-Dawley rats [8] = assay type: in vivo; settings: rat
[9] = [3H]-naloxone sites, rat forebrain

human α3β4 nAChRs, sequence (P32297 32-505): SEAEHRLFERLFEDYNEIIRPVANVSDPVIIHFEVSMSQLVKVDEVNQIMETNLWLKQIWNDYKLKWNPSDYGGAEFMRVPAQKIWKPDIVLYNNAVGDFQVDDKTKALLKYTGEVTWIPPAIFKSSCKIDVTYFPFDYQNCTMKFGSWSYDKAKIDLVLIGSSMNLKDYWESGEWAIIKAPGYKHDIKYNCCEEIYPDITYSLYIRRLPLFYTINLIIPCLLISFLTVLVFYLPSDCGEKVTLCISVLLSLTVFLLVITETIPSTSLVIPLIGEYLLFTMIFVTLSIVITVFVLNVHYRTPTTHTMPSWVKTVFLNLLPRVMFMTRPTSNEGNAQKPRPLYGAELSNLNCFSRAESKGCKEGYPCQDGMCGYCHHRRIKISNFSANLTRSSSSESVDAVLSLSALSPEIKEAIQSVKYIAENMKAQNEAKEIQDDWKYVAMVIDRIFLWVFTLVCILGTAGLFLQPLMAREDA
human α3β4 nAChRs, sequence (P30926 22-498): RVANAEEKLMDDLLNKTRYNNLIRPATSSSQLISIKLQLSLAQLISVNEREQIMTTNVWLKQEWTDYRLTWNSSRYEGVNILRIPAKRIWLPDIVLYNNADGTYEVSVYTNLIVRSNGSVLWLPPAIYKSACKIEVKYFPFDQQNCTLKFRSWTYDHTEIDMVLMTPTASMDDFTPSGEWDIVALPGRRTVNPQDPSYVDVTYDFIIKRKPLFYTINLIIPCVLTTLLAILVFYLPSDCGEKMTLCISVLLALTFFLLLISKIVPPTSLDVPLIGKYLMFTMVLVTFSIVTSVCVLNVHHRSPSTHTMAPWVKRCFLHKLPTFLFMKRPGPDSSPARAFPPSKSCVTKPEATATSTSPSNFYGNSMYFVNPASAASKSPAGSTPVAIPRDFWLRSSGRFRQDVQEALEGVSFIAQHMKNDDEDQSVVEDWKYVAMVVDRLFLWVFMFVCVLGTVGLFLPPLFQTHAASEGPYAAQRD

2-ethylidene-1,5,dimethyl-3,3-diphenylpyrrolidine perchlorate [EDDP]
block of rat α3β4 nAChR channels (rat α3β4 nAChRs): potently block | Straub tail effects (Straub tail observation): failed to observe any Straub tail effects | analgesia in the tail-flick assay [1]: neither compound produces analgesia | fold lower affinity than methadone [2, 9]: ~ 83 fold | fraction of binding sites competed for [2, 9]: nearly all of the binding sites | marbles buried vs vehicle ([3]; 5 mg/kg i.p.): buried significantly fewer marbles | marbles buried vs vehicle ([3]; 10 mg/kg i.p.): did not reach statistical significance | duration of immobility vs vehicle ([4]; mouse, 1, 5, or 10 mg/kg i.p.): did not produce a significant effect on duration of immobility | open field locomotor activity (Sprague-Dawley rats [5]; 10mg/kg s.c.): neither EDDP nor EMDP significantly altered open field locomotor activity | immobile time vs vehicle (Sprague-Dawley rats [6]; 10 mg/kg s.c.): without effect

CNC1=Nc2ccc(Cl)cc2C(c2ccccc2)=[N+]([O-])C1 [CDP, chlordiazepoxide HCl, reference compound]
marbles buried vs vehicle ([3]; 10 mg/kg i.p.): buried significantly fewer marbles

CCC1=NC(C)CC1(c1ccccc1)c1ccccc1.Cl (centres unmarked) [EMDP, 2-ethyl-5-methyl-3,3,-diphenyl-1-pyrroline hydrochloride]
potency relative to mecamylamine in blocking rat α3β4 nAChRs (rat α3β4 nAChRs; ref Xiao et al): only one-sixth as potent | block of rat α3β4 nAChR channels (rat α3β4 nAChRs): potently block | Straub tail effects (Straub tail observation): failed to observe any Straub tail effects | analgesia in the tail-flick assay [1]: neither compound produces analgesia | Ki ([2]; 2 nM [3H]-naloxone, rat forebrain, single-site fit): 21 µM | fold lower affinity than methadone [2, 9]: 1900 fold and ~ 1900 fold | sites competed for ([2]; even at a concentration of 100 μM): 60% | marbles buried vs vehicle ([3]; 1 mg/kg i.p.): not at the 1 mg/kg dose | marbles buried vs vehicle ([3]; 5 mg/kg i.p.): buried significantly fewer marbles | marbles buried vs vehicle ([3]; 10 mg/kg i.p.): buried significantly fewer marbles | potency relative to mecamylamine in blocking human α3β4 nAChRs (human α3β4 nAChRs): only half as potent as mecamylamine | immobility time vs vehicle ([4]; 5 mg/kg i.p.): did not affect immobility time | immobility time vs vehicle ([4]; 10 mg/kg i.p.): significantly reduced it | overall locomotor activity [7]: did not significantly affect overall locomotor activity | open field locomotor activity (Sprague-Dawley rats [5]; 5mg/kg s.c.): neither EDDP nor EMDP significantly altered open field locomotor activity | immobile time vs vehicle (Sprague-Dawley rats [6]; 10 mg/kg s.c.): reduced immobile time | immobile time vs vehicle (Sprague-Dawley rats [6]; 20 mg/kg s.c.): reduced immobile time | ptosis over 3h observation (Sprague-Dawley rats [8]; 20 mg/kg): ptosis was not apparent at any time | ptosis observed during forced swim tests (Sprague-Dawley rats [8]; 10 and 20 mg/kg): did not produce ptosis

CNC1(C)C2CCC(C2)C1(C)C (centres unmarked) [Mecamylamine, Mecamylamine HCl]
immobile time vs vehicle (Sprague-Dawley rats [6]; 5 mg/kg s.c.): reduced immobile time | onset of ptosis after injection (Sprague-Dawley rats [8]; 5 mg/kg): ≤ 15 min | ptosis observed during forced swim tests (Sprague-Dawley rats [8]; 5 mg/kg): obvious ptosis | ptosis over 3h observation (Sprague-Dawley rats [8]; 5 mg/kg, significant at 30 and 45 min, not at 3 h): produced ptosis in a time-dependent manner

CN[C@H]1CC[C@@H](c2ccc(Cl)c(Cl)c2)c2ccccc21 [sertraline, sertraline HCl, reference compound]
immobile time vs vehicle (Sprague-Dawley rats [6]; 20 mg/kg s.c.): significantly reduced immobile time
